We go through 7 compounds from article PMC12696353, “Structural insights into endogenous agonist selectivity of aminergic receptors from the octopamine β2 receptor” (PNAS Nexus, 2025).

Assay [1] deals with I. scapularis octβ2R (is-octβ2R) (Ixodes scapularis, UniProt A0ACM8E5E8). The experiment in a line: cell-based. The assay is classed as cell-based. The conditions noted are these: for potency (EC50) relative to the other TDAs: order octopamine > tyramine > noradrenaline > dopamine. The procedure:
(§1) The TGFα shedding assay was performed as previously described ([28]). […] The cells were transfected using lipofectamine 2000 with plasmids encoding alkaline phosphatase–tagged TGFα (AP-TGFα) (2.5 ng/mL), is-octβ2Rs (1 ng/mL), and Gαq/s (0.5 ng/mL). After 24 h, the cells were washed with phosphate-buffered saline and resuspended in Hank's balanced salt solution (HBSS) (supplemented with 5 mM HEPES [pH 7.4]). The cells (90 μL/well) were plated in a 96-well plate and incubated with 10 μL of HBSS solution containing various concentrations of compounds for 1 h at 37 °C. Following centrifugation (200 × g, 2 min), 80 μL of the supernatant was transferred to a separate 96-well plate. Subsequently, 80 µL of 2× para-nitrophenyl phosphate (pNPP) buffer (containing 10 mM pNPP in 40 mM Tris–HCl [pH 9.5], 40 mM NaCl, and 10 mM MgCl2) was added to both the supernatant and cell-containing plates. The optical density at 405 nm of both plates was measured before and after a 1 h incubation at room temperature using a microplate reader (SpectraMax iD3, Molecular Devices, San Jose, CA, United States). AP-TGFα release was calculated using the following formulas:
(§2) ΔOD405=OD450(1h)−OD405(0h)AP−TGFαinsupernatant(%)=(ΔOD405Sup/[ΔOD450Sup+ΔOD405Cell])×125AP−TGFαrelease(%)=AP−TGFαinsupernatantunderastimulatedcondition(%)−AP−TGFαinsupernatantunderavehicle−treatedcondition
(§3) where OD405 (0 h) and […] represent the OD405 before and after a 1 h incubation, respectively, and OD405Sup and OD405Cell represent the OD405 of supernatant and cell plates, respectively. For all pharmacological analyses, nonlinear regression curve fitting was performed with a 3-parameter sigmoid model (Hill coefficient = 1) using Prism 8 (GraphPad Software, La Jolla, CA, United States).

For assay [2], the target named is T1, is-octβ2R Y215^5.58H mutant (Ixodes scapularis, UniProt A0ACM8E5E8, Y215H).
T1 sequence (A0ACM8E5E8 1-384 Y215H): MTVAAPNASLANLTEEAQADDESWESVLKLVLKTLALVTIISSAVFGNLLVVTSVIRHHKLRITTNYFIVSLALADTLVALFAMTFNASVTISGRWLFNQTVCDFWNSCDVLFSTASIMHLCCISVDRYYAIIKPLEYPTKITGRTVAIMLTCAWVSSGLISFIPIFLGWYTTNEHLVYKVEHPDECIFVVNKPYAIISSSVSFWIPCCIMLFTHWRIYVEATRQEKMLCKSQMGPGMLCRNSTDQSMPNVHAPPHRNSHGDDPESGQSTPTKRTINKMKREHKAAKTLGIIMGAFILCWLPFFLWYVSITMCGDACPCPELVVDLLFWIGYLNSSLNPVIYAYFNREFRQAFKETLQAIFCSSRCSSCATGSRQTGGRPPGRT
Put plainly: TGFα shedding assay, amitraz-resistant mutant Y215^5.58H. The format is cell-based. The procedure:
as §1, §2, §3

Assay [3] has as its system is-octβ2R Y215^5.58H mutant. The description is as above. The assay is classed as cell-based, Ixodes scapularis. To be noted: versus wild type. On the procedure: as §1, §2, §3
Assay [4] has as its target T2, is-octβ2R Y67^2.41S mutant (Ixodes scapularis, UniProt A0ACM8E5E8, Y67S).
T2 sequence (A0ACM8E5E8 1-384 Y67S): T1 sequence (A0ACM8E5E8 1-384 Y215H) with Y67S, H215Y
Put plainly: TGFα shedding assay, amitraz-resistant mutant Y67^2.41S. The format is cell-based. The conditions noted are these: Table S4. On the procedure: as §1, §2, §3

Assay [5] deals with T3, is-octβ2R T60^1.41P mutant (Ixodes scapularis, UniProt A0ACM8E5E8).
T3 sequence (A0ACM8E5E8 1-384 T39P): T1 sequence (A0ACM8E5E8 1-384 Y215H) with T39P, H215Y
Put plainly: TGFα shedding assay, amitraz-resistant mutant T60^1.41P. The conditions noted are these: Table S4. The assay is classed as cell-based. On the procedure:
as §1, §2, §3

The target of assay [6] is T4, is-octβ2R I61^1.42F mutant (Ixodes scapularis, UniProt A0ACM8E5E8, I40F).
T4 sequence (A0ACM8E5E8 1-384 I40F): T1 sequence (A0ACM8E5E8 1-384 Y215H) with I40F, H215Y
The experiment in a line: TGFα shedding assay, amitraz-resistant mutant I61^1.42F. The format is cell-based. The conditions noted are these: Table S4. On the procedure:
as §1, §2, §3

In assay [7] the target is T5, is-octβ2R I62^1.43T mutant (Ixodes scapularis, UniProt A0ACM8E5E8, I41T).
T5 sequence (A0ACM8E5E8 1-384 I41T): T1 sequence (A0ACM8E5E8 1-384 Y215H) with I41T, H215Y
The experiment in a line: TGFα shedding assay, amitraz-resistant mutant I62^1.43T. The assay is classed as cell-based. The conditions noted are these: Table S4. The procedure:
as §1, §2, §3

Assay [8] concerns the target T6, is-octβ2R N87^2.61S mutant (Ixodes scapularis, UniProt A0ACM8E5E8, N87S).
T6 sequence (A0ACM8E5E8 1-384 N87S): T1 sequence (A0ACM8E5E8 1-384 Y215H) with N87S, H215Y
The experiment in a line: TGFα shedding assay, amitraz-resistant mutant N87^2.61S. The format is cell-based. The conditions noted are these: Table S4. On the procedure:
as §1, §2, §3

Where [9] appears, read: HEK293, 1 h, Table S2, wild type, AP-TGFα release, HEK293 cells, mean ± SEM, n = 3.
[10] abbreviates: logEC50, Table S2, wild type, HEK293 cells, mean ± SEM, n = 3.
The mark [11] stands for this setting: Table S2, wild type, HEK293 cells, mean ± SEM, n = 3.

The structures appear in SMILES notation. Where a chain is given by its changes, count along the chain named. Entries after “also recorded” stand apart in the source; their conditions may differ. Where two headings read alike, the source gives them in different places.

On to `Cc1ccc(N)c(C)c1` [2′,4′-dimethylaniline], for which, in assay [1] (wild type), the agonistic activity result is given as “no agonist activity”.
`CNC[C@H](O)c1ccc(O)c(O)c1` [Adrenaline, adrenaline]: in assay [1], the 50% effective concentration (EC50) (commonly the midpoint of the concentration-response curve) was 3160 nM. For the same compound, the maximal effect (Emax) (in general, the maximal effect, on the per cent scale that the assay sets) in assay [1] (HEK293, 1 h) was 20 ± 2.1%.
Turning to `Cc1ccc(/N=C/N(C)/C=N/c2ccc(C)cc2C)c(C)c1` [Amitraz], the EC50 in assay [2] was 63.1 nM; in assay [1] (LogEC50, Table S4, WT), 31.6 nM; in assay [1] (setting [10]) it was 126 nM; in assay [4], 63.1 nM; in assay [5], 31.6 nM; in assay [6], 63.1 nM. The 50% effective concentration (EC50) in assay [7] was 15.8 nM; in assay [8] it was 50.1 nM. Also, in assay [3], the “reduction of maximal response (Emax) by the Y215^5.58H mutation” value is around 50%. Further, the Emax in assay [1] (1 h, Table S4, WT, AP-TGFα release) was found to be 17 ± 1%; in assay [1] (setting [9]), 26 ± 0.9%.
Take `Cc1ccc(NC=O)c(C)c1` [DMF, N-(2,4-dimethylphenyl)formamide]: the logEC50 entry in assay [1] (setting [11]) was “no activity”. For the same compound, the agonistic activity entry in assay [1] (wild type) was “no agonistic activity”.
With `NCCc1ccc(O)c(O)c1` [Dopamine, dopamine], the logEC50 result in assay [1] (setting [11]) is “signal observed only at 10-5 M”. Also, the “potency (EC50) relative to the other TDAs” value in assay [1] (wild type) is “significantly weaker affinities; also recorded: lowest potency”.
Regarding `NC[C@H](O)c1ccc(O)c(O)c1` [Noradrenaline, noradrenaline], the Emax in assay [1] (setting [9]) was determined as 32 ± 13.1%. Also, the concentration for a half-maximal effect (EC50) in assay [1] (setting [10]) was 10000 nM. Moreover, in assay [1] (wild type), the “potency (EC50) relative to the other TDAs” value is recorded as “significantly weaker affinities”.
With `NCCc1ccc(O)cc1` [Tyramine, tyramine], the midpoint of the response in assay [1], the EC50, lay at 1580 nM. This compound also yielded a maximal effect (Emax) in assay [1] (HEK293, 1 h) of 25 ± 1.7%. Also, the “potency (EC50) relative to the other TDAs” value in assay [1] (wild type) is given as “weaker potency”.
